This note sets out measurements from ChEMBL document CHEMBL1154867, “Cytotoxic halogenated metabolites from the Brazilian red alga Laurencia catarinensis” (J Nat Prod, 2010).

What all share (type): functional, cell-based
One assay deals with HT-29. Nature of the assay: Cytotoxicity against human HT-29 cells after 24 hrs by MTT assay. As to conditions: HT-29, 24 h.
Another assay has as its system MCF7. Nature of the assay: Cytotoxicity against human MCF7 cells after 24 hrs by MTT assay. Conditions: MCF7, 24 h. For orientation: Tetrazolium dyes change colour on reduction, which living cells bring about.
The test system of another assay is A-431. Nature of the assay: Cytotoxicity against human A431 cells after 24 hrs by MTT assay. Conditions: A-431, 24 h.

In general, IC50 refers to the midpoint of a concentration-inhibition curve. High values mean weaker potency in that assay, low ones greater potency in that assay. Consider `CO[C@@]1(C)OC(=O)C=C1[C@@H]1CC[C@@](C)(Cl)[C@H](Br)C1` (relative stereo), for which the IC50 with HT-29 turned out to be 85.6 µM; in the assay on MCF7, 89 µM; in the assay on A-431, 91.7 µM.

With `CC1(C)O[C@@](C)([C@@H]2CC[C@](C)(Br)[C@@H](Cl)C2)CC[C@@H]1Br` [DEOXY ISOCAESPITOL], the 50% inhibitory concentration (IC50) is 27.3 µM in the assay with HT-29, 31.7 µM with MCF7 and 30.7 µM in the assay with A-431.

Turning to `CC(=O)O[C@H]1C[C@@](C)(Cl)[C@H](Br)C[C@@H]1[C@]1(C)OC(C)(C)[C@@H](Br)C[C@@H]1OC(C)=O`, the IC50 with HT-29, with MCF7 and with A-431 was over 100 µM throughout.

Take `CO[C@]1(C)OC(=O)C=C1[C@@H]1CC[C@@](C)(Cl)[C@H](Br)C1` (relative stereo): the IC50 in the assay on HT-29, with MCF7 and with A-431 was over 100 µM each time.

For the compound `CCCCCCCCCCCCCCCCOP(=O)([O-])OCC[N+](C)(C)C` [MILTEFOSINE], the IC50 in the assay with HT-29 is 48.6 µM; in the assay with MCF7, 42.3 µM; in the assay with A-431, 53.7 µM.

Take `CC(=O)O[C@H]1C[C@@](C)(Cl)[C@H](Br)C[C@@H]1[C@]1(C)OC(C)(C)[C@@H](Br)C[C@@H]1O`: the 50% inhibitory concentration (IC50) in the assay on HT-29 is 12.4 µM; in the assay on MCF7, 11.7 µM; with A-431, 13.1 µM.

Regarding `C[C@]1(O)OC(=O)C=C1[C@@H]1CC[C@@](C)(Cl)[C@H](Br)C1` [FUROCAESPITANELACTOL], the IC50 in the assay on HT-29, in the assay on MCF7 and in the assay with A-431 was over 100 µM each time.

With `CC(=O)O[C@H]1C[C@H](Br)C(C)(C)O[C@@]1(C)[C@H]1C[C@@H](Br)[C@](C)(Cl)C[C@@H]1O`, the half-inhibitory concentration (IC50) with HT-29 was found to be 70.4 µM; in the assay with MCF7, 73.6 µM; with A-431, 72.1 µM.

`CC(=O)O[C@H]1C[C@@](C)(Cl)[C@H](Br)C[C@@H]1[C@@]1(C)CC[C@H](Br)C(C)(C)O1`: the IC50 stood at 48.8 µM with HT-29, 52.4 µM in the assay with MCF7 and 54.9 µM in the assay on A-431.

Take `CC1(C)O[C@@](C)([C@@H]2CC[C@](C)(Br)[C@@H](Cl)C2)[C@@H](O)C[C@@H]1Br` [ISOCAESPITOL]: the IC50 with HT-29, with MCF7 and in the assay on A-431 was over 100 µM each time.

In the case of `CC1(C)O[C@@](C)([C@@H]2CC[C@@](C)(Cl)[C@H](Br)C2)CC[C@@H]1Br` [DEOXYCAESPITOL], the figures for the IC50 with HT-29, in the assay on MCF7 and in the assay with A-431 were 12.5 µM, 11.2 µM and 13.1 µM, respectively.

For `CC1(C)O[C@@](C)([C@@H]2CC[C@@](C)(Cl)[C@H](Br)C2)CC[C@H]1Br`, the IC50 in the assay on HT-29, in the assay on MCF7 and in the assay with A-431 was over 100 µM throughout.

For the compound `CC1(C)O[C@](C)([C@H]2CC[C@](C)(Cl)[C@@H](Br)C2)[C@H](O)C[C@H]1Br` [CAESPITOL], the IC50 in the assay with HT-29 came to 7.6 µM; in the assay with MCF7 it was 9.7 µM; in the assay on A-431, 10.2 µM.

`CC1(C)C=CC(=O)[C@](C)([C@@H]2CC[C@@](C)(Cl)[C@H](Br)C2)O1` [CAESPITENONE]: the results for the IC50 in the assay with HT-29, with MCF7 and in the assay on A-431 were 18.9 µM, 19.7 µM and 21.6 µM, respectively.

Consider `CC(=O)O[C@H]1C[C@H](Br)C(C)(C)O[C@@]1(C)[C@@H]1CC[C@@](C)(Cl)[C@H](Br)C1` [ACETYLCAESPITOL], for which the IC50 is 16.1 µM with HT-29, 17.6 µM in the assay on MCF7 and 17.4 µM with A-431.
